Our source for the inhibition, Activity and bioavailability values is ChEMBL document CHEMBL2321873, “1-(4-Phenylpiperazin-1-yl)-2-(1H-pyrazol-1-yl)ethanones as novel CCR1 antagonists” (Bioorg Med Chem Lett, 2013).

The target of data set [1] is T1, C-X-C chemokine receptor type 5 (Homo sapiens) (UniProt P32302).
T1 sequence (whole entry): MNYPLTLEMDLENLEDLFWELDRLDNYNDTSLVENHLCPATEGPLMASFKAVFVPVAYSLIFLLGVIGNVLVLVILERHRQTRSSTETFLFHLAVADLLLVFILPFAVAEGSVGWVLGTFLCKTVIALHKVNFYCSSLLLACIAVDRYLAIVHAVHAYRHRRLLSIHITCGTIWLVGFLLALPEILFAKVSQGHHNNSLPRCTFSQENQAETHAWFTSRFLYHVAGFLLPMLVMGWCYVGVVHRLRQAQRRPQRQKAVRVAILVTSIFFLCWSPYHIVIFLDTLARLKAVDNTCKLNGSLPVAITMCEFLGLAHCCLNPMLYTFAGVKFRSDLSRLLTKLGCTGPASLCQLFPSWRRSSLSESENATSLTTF
Put plainly: Antagonist activity at CXCR5 (unknown origin) assessed as inhibition of chemotaxis at 10 uM.

In data set [2] the target is C-X-C chemokine receptor type 4 (Homo sapiens) (UniProt P61073). Put plainly: Antagonist activity at CXCR4 (unknown origin) assessed as inhibition of chemotaxis at 10 uM.
The target of data set [3] is C-C chemokine receptor type 8 (Homo sapiens) (UniProt P51685). Kind of data set: Antagonist activity at CCR8 (unknown origin) assessed as inhibition of chemotaxis at 10 uM.
The target of data set [4] is T2, C-C chemokine receptor type 3 (Homo sapiens) (UniProt P51677).
T2 sequence (whole entry): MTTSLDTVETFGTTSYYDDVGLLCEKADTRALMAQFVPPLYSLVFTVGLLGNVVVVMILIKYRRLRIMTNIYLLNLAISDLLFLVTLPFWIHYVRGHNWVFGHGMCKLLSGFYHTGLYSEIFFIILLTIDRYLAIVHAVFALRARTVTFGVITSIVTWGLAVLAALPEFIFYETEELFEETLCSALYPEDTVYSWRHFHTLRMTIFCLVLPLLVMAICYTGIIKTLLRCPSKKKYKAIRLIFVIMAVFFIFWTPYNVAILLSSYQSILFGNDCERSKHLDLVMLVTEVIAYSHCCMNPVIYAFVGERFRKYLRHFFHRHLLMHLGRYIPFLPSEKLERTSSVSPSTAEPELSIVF
Put plainly: Antagonist activity at CCR3 (unknown origin) assessed as inhibition of chemotaxis at 10 uM.

The target of data set [5] is C-X-C chemokine receptor type 6 (Homo sapiens) (UniProt O00574). Kind of data set: Antagonist activity at CXCR6 (unknown origin) assessed as inhibition of calcium flux at 10 uM. Type of data set: functional.
The target of data set [6] is T3, C-X-C chemokine receptor type 2 (Homo sapiens) (UniProt P25025).
T3 sequence (whole entry): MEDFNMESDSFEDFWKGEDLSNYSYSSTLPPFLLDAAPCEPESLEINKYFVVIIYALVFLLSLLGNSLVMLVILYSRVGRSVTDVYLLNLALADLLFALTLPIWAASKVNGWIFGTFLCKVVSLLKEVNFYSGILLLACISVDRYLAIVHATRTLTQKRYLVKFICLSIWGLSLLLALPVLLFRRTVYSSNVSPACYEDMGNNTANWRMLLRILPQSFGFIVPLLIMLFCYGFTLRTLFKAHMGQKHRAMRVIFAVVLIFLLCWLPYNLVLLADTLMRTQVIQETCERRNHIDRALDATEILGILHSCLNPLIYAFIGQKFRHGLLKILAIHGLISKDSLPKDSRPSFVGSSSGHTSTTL
Kind of data set: Antagonist activity at CXCR2 (unknown origin) assessed as inhibition of calcium flux at 10 uM. Type of data set: functional.

Data set [7] concerns the target T4, C-C chemokine receptor type 9 (Homo sapiens) (UniProt P51686).
T4 sequence (whole entry): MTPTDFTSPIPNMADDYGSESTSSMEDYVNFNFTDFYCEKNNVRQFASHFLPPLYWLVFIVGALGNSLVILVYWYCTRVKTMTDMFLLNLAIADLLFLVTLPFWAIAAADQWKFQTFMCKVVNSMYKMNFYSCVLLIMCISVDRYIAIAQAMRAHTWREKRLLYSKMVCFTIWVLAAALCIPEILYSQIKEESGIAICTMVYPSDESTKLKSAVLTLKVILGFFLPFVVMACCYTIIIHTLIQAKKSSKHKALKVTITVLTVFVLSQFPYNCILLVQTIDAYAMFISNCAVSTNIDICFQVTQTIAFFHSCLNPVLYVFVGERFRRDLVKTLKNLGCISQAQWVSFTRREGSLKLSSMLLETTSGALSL
Put plainly: Antagonist activity at CCR9 (unknown origin) assessed as inhibition of calcium flux at 10 uM. Type of data set: functional.

Data set [8] deals with T5, CX3C chemokine receptor 1 (Homo sapiens) (UniProt P49238).
T5 sequence (whole entry): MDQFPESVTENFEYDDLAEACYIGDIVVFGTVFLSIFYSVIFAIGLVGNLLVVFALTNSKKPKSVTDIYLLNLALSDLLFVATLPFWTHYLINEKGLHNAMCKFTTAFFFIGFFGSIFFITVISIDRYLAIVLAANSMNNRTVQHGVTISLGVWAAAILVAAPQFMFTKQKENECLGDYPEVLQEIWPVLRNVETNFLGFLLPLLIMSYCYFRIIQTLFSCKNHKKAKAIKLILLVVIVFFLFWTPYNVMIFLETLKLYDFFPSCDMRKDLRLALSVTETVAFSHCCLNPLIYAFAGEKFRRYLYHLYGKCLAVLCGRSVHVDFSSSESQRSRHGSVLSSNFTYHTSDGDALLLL
Kind of data set: Binding affinity to CX3CR1 (unknown origin) at 10 uM by radioligand displacement assay.

For data set [9], the target named is C-X-C chemokine receptor type 6 (Homo sapiens) (UniProt O00574). Put plainly: Binding affinity to CXCR6 (unknown origin) at 10 uM by radioligand displacement assay.
For data set [10], the target named is T6, C-C chemokine receptor type 7 (Homo sapiens) (UniProt P32248).
T6 sequence (whole entry): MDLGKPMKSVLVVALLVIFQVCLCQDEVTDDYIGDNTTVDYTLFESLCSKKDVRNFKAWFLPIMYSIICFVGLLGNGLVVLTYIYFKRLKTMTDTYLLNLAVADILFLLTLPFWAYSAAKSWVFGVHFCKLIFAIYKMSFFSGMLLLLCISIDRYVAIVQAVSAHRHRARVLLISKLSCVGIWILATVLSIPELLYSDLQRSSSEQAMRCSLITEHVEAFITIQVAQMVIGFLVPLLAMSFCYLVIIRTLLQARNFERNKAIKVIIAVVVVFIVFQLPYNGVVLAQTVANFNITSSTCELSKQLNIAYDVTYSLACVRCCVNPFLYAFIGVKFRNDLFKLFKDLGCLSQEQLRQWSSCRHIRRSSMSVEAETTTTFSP
Put plainly: Binding affinity to CCR7 (unknown origin) at 10 uM by radioligand displacement assay.

Data set [11] in a line: Oral bioavailability in Beagle dog at 5 mg/kg. The data set is classed as ADME, organism-based, Canis lupus familiaris. The conditions noted are these: in vivo.
Data set [12] has as its system Rattus norvegicus. Put plainly: Acute toxicity in Sprague-Dawley rat up to 1000 mg/kg. Type of data set: organism-based. Also on record: dose 1000 mg/kg. The following applies: in vivo.
In data set [13] the test system is Rattus norvegicus. Put plainly: Toxicity in Sprague-Dawley rat assessed as effect on body weight at 70 to 360 mg/kg, po after 7 days. The following applies: in vivo, 168 h. Type of data set: organism-based. Further details: dose 70-360 mg/kg, route oral.

The source made the active and inactive calls. The calls are words filed in the database; no cut-off is given here.

Chain of C-X-C chemokine receptor type 6 (Homo sapiens) (O00574 whole entry, looked up): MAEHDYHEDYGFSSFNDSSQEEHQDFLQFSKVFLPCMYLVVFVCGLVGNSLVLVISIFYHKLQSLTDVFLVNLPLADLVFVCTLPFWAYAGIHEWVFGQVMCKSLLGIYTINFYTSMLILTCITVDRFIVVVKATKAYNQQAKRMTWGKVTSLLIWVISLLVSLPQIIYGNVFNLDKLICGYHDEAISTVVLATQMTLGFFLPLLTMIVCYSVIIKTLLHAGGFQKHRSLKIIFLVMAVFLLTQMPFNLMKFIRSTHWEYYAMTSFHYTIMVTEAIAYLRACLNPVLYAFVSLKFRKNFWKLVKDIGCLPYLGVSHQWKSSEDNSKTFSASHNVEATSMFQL
Chain of C-X-C chemokine receptor type 4 (Homo sapiens) (P61073 whole entry): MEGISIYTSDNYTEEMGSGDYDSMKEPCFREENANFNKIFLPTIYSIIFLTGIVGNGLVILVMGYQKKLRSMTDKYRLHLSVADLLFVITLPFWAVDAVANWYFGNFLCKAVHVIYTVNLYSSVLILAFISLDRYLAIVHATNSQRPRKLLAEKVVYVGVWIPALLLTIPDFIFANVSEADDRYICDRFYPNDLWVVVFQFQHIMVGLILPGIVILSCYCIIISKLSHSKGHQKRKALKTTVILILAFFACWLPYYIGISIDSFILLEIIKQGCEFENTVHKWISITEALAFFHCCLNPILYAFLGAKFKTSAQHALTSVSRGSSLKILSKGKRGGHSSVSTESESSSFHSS
Chain of C-C chemokine receptor type 8 (Homo sapiens) (P51685 whole entry): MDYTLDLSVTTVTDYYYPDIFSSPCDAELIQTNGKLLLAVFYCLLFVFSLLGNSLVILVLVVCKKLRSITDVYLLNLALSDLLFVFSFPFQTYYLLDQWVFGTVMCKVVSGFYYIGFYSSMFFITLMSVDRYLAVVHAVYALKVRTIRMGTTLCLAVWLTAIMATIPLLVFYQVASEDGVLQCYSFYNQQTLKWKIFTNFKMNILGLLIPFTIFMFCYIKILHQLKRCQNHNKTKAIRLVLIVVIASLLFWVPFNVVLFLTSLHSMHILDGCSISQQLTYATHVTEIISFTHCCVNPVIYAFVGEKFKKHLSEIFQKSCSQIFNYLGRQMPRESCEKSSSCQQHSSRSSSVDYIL

`COc1cc(N2CCN(C(=O)Cn3nc(C(F)(F)F)c(Cl)c3C)CC2)ccc1Cl`: the inhibition result in data set [1], in [2], in data set [3], in [4], in data set [5] and in [6] was “inactive” in each case. Moreover, the inhibition entry in data set [7] is “inactive”. Besides, the outcome in [8], in data set [9] and in data set [10] was inactive. For the same compound, in [11], the bioavailability stood at 20%. The Activity result with Rattus norvegicus [12] and with Rattus norvegicus [13] was “Non-toxic” throughout.
